Measurements from patent US20060069132A1, “Azolecarboxamide herbicides” (priority 2004, published 2006).

Key:
Surinam grass = test: Test C pre-/postemergence herbicide test; format: in vivo, Urochloa decumbens; details: for Surinam Grass plant response rating: Preemergence, 500 g ai/ha, scale 0 to 100, 0 no effect, 100 complete control
Outline: (§1)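 Pre/post spray; non-phytotoxic solvent + surfactant. Post-timing 1–4 leaves, 2–18 cm. Read-out: visual % control vs untreated, day 12–14, greenhouse.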

cocklebur = test: Test C pre-/postemergence herbicide test; format: in vivo, Xanthium strumarium; details: for Cocklebur plant response rating: Preemergence, 500 g ai/ha, scale 0 to 100, 0 no effect, 100 complete control
Outline: as §1

giant foxtail = test: Test C pre-/postemergence herbicide test; format: in vivo, Setaria faberi; details: for Foxtail, Giant plant response rating: Preemergence, 500 g ai/ha, scale 0 to 100, 0 no effect, 100 complete control
Outline: as §1

johnsongrass = test: Test C pre-/postemergence herbicide test; format: in vivo, Sorghum halepense; details: for Johnsongrass plant response rating: Preemergence, 500 g ai/ha, scale 0 to 100, 0 no effect, 100 complete control
Outline: as §1

morningglory = test: Test C pre-/postemergence herbicide test; format: in vivo, Ipomoea coccinea; parameters: key to Plant response rating, Morningglory: 0 = no effect, 100 = complete control; details: for Morningglory plant response rating: Preemergence, 500 g ai/ha, scale 0 to 100, 0 no effect, 100 complete control
Outline: as §1

eastern black nightshade = test: Test C pre-/postemergence herbicide test; format: in vivo, Solanum ptycanthum; details: for Nightshade plant response rating: Preemergence, 500 g ai/ha, scale 0 to 100, 0 no effect, 100 complete control
Outline: as §1

yellow nutsedge = test: Test C pre-/postemergence herbicide test; format: in vivo, Cyperus esculentus; details: for Nutsedge, Yellow plant response rating: Preemergence, 500 g ai/ha, scale 0 to 100, 0 no effect, 100 complete control
Outline: as §1

ducksalad = test: Test C flooded paddy test; format: in vivo, Heteranthera limosa; details: for Plant response rating, Ducksalad: 500 g ai/ha, visual rating after 12 to 14 days
barnyardgrass = test: Test C flooded paddy test; format: in vivo, Echinochloa crus-galli; details: for Plant response rating, Barnyardgrass: 500 g ai/ha, visual rating after 12 to 14 days
Outline: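 Plants were grown to the 1- to 4-leaf stage (2–18 cm) and then treated postemergence, or grown to the 2-leaf stage for the flooded paddy test. They were held in a greenhouse for 12 to 14 days and then scored by eye against controls, where 0 is no effect and 100 is complete control.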

[1] = 125 g ai/ha, scale 0 (no effect) to 100 (complete control), visual, 12 to 14 days, preemergence
[2] = 250 g ai/ha, scale 0 to 100 (0 no effect, 100 complete control), visual, 12 to 14 days, preemergence
[3] = 62 g ai/ha, scale 0 to 100 (0 no effect, 100 complete control)
[4] = 125 g ai/ha, scale 0 to 100 (0 no effect, 100 complete control)
[5] = 250 g ai/ha, scale of 0 to 100, 0 is no effect, 100 is complete control
[6] = scale 0 to 100 (0 no effect, 100 complete control)
[7] = 125 g ai/ha, scale of 0 to 100, 0 is no effect, 100 is complete control
[8] = 62 g ai/ha, preemergence, scale 0 to 100

Row | SMILES | Plant response rating, Surinam Grass (Surinam grass; [1]) | Surinam Grass plant response rating (Surinam grass) | Plant response rating, Cocklebur (cocklebur; [1]) | Plant response rating, Cocklebur (cocklebur; [2]) | Cocklebur plant response rating (cocklebur) | Plant response rating, Foxtail, Giant (giant foxtail; [1]) | Plant response rating, Foxtail, Giant (giant foxtail; [2]) | Foxtail, Giant plant response rating (giant foxtail) | Plant response rating, Johnsongrass (johnsongrass; [1]) | Johnsongrass plant response rating (johnsongrass) | Morningglory plant response rating (morningglory) | Plant response rating, Nightshade (eastern black nightshade; [1]) | Nightshade plant response rating (eastern black nightshade) | Plant response rating, Nutsedge, Yellow (yellow nutsedge; [1]) | Nutsedge, Yellow plant response rating (yellow nutsedge) | Ducksalad plant response rating (ducksalad; [3]) | Ducksalad plant response rating (ducksalad; [4]) | Ducksalad plant response rating (ducksalad; [5]) | Plant response rating, Ducksalad (ducksalad; [6]) | Barnyardgrass plant response rating (barnyardgrass; [3]) | further results
1 | CCn1nc(C(C)(C)C)cc1C(=O)Nc1cc(C#N)ccc1F [Compound 140] | 0 | 70 | 0 | 0 | 0 | 25 | 65 | 85 | 45 | 75 | 0 | 0 | 95 | 0 | 0 | 0 | 0 | 0 | 20 | 0 | Plant response rating (0 = no effect, 100 = complete control), Surinam Grass (Surinam grass; 62 g ai/ha, preemergence): 0; Plant response rating (0 = no effect, 100 = complete control), Cocklebur (cocklebur; 62 g ai/ha, preemergence): 0; Plant response rating (0 = no effect, 100 = complete control), Foxtail, Giant (giant foxtail; 62 g ai/ha, preemergence): 0; Plant response rating (0 = no effect, 100 = complete control), Johnsongrass (johnsongrass; 62 g ai/ha, preemergence): 0; Plant response rating (0 = no effect, 100 = complete control), Morningglory (morningglory; 62 g ai/ha, preemergence): 0; Plant response rating, Morningglory (morningglory; [1]): 0; Plant response rating (0 = no effect, 100 = complete control), Nightshade (eastern black nightshade; 62 g ai/ha, preemergence): 0; Plant response rating (0 = no effect, 100 = complete control), Nutsedge, Yellow (yellow nutsedge; 62 g ai/ha, preemergence): 0; Barnyardgrass plant response rating (barnyardgrass; [7]): 0; Barnyardgrass plant response rating (barnyardgrass; [5]): 0; Plant response rating, Barnyardgrass (barnyardgrass; [6]): 15
2 | CCNC(=O)c1ccnc(NC(=O)c2cc(C(C)(C)C)nn2CC)c1 [Compound 152] | 60 | 100 | 65 | 65 | 100 | 100 | 100 | 100 | 100 | 100 | 100 | 90 | 100 | 30 | 70 | 85 | 85 | 85 | 85 | 40 | Plant response rating, Surinam Grass (Surinam grass; [8]): 40; Plant response rating, Foxtail, Giant (giant foxtail; [8]): 70; Plant response rating, Johnsongrass (johnsongrass; [8]): 80; Plant response rating, Morningglory (morningglory; [8]): 20; Plant response rating, Morningglory (morningglory; [1]): 80; Plant response rating, Nightshade (eastern black nightshade; [8]): 80; Plant response rating, Nutsedge, Yellow (yellow nutsedge; [8]): 10; Barnyardgrass plant response rating (barnyardgrass; [7]): 75; Barnyardgrass plant response rating (barnyardgrass; [5]): 75; Plant response rating, Barnyardgrass (barnyardgrass; [6]): 85
3 | CCc1nn(C(C)(C)C)cc1C(=O)Nc1cccc(C(C)=NO)c1 [Compound 188] | 30 | 80 | 0 | 0 | 0 | 55 | 70 | 100 | 20 | 75 | 75 | 95 | 100 | 0 | 0 | 20 | 65 | 75 | 85 | 35 | Plant response rating, Surinam Grass (Surinam grass; [8]): 20; Plant response rating, Cocklebur (cocklebur; [8]): 0; Plant response rating, Foxtail, Giant (giant foxtail; [8]): 0; Plant response rating, Johnsongrass (johnsongrass; [8]): 0; Plant response rating, Morningglory (morningglory; [8]): 0; Plant response rating, Nightshade (eastern black nightshade; [8]): 80; Plant response rating, Nutsedge, Yellow (yellow nutsedge; [8]): 0; Barnyardgrass plant response rating (barnyardgrass; [7]): 55; Barnyardgrass plant response rating (barnyardgrass; [5]): 75; Plant response rating, Barnyardgrass (barnyardgrass; [6]): 85
